Results as given in PubChem BioAssay AID180 (DTP/NCI, 2004).
Several values for one entry are separate records, joined by “and”; a condition that tells them apart may be missing. Equal values may be shown once.

Tested on: BDF1 mice, Adenocarcinoma 755 s.c., tumor weight T/C
Assay: NCI In Vivo Anticancer Drug Screen. Data for tumor model Adenocarcinoma 755 (subcutaneous) in B6D2F1 (BDF1) mice
Conditions: endpoint: mean tumor weight, higher = larger tumour
How it was run: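 Readout: T/C, i.e. treated-group measurement over vehicle-control measurement. Endpoint is survival or tumor size in tumor-bearing mice given compound.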

## Nc1c(Br)cc2c(c1Br)Cc1cc(Br)ccc1-2
dose: 3.75 mg/kg/injection, schedule: Q#A X022 (ip), vehicle: saline
  T/C: 77 % of control
dose: 7.5 mg/kg/injection, schedule: Q#A X022 (ip), vehicle: saline
  T/C: 50 % of control
dose: 15.0 mg/kg/injection, schedule: Q01DX011 (im), vehicle: saline
  T/C: 46 % of control
dose: 15.0 mg/kg/injection, schedule: Q01DX011 (sc), vehicle: saline
  T/C: 58 % of control
dose: 15.0 mg/kg/injection, schedule: Q#A X022 (ip), vehicle: saline
  T/C: 40 % of control
dose: 15.5 mg/kg/injection, schedule: Q01DX011 (ip), vehicle: saline
  T/C: 74 % of control
dose: 21.8 mg/kg/injection, schedule: Q01DX011 (ip), vehicle: saline
  T/C: 59 % of control and 69 % of control
dose: 30.0 mg/kg/injection, schedule: Q01DX011 (im), vehicle: saline
  T/C: 48 % of control
dose: 30.0 mg/kg/injection, schedule: Q01DX011 (sc), vehicle: saline
  T/C: 52 % of control
dose: 30.0 mg/kg/injection, schedule: Q#A X022 (ip), vehicle: saline
  T/C: 40 % of control
dose: 31.2 mg/kg/injection, schedule: Q01DX011 (ip), vehicle: saline
  T/C: 75 % of control
dose: 43.7 mg/kg/injection, schedule: Q01DX011 (ip), vehicle: saline
  T/C: 18 % of control and 36 % of control
dose: 45.0 mg/kg/injection, schedule: Q03DX004 (ip), vehicle: saline
  T/C: 67 % of control
dose: 60.0 mg/kg/injection, schedule: Q01DX011 (im), vehicle: saline
  T/C: 40 % of control
dose: 60.0 mg/kg/injection, schedule: Q01DX011 (ip), vehicle: saline
  T/C: 24 % of control
dose: 60.0 mg/kg/injection, schedule: Q01DX011 (sc), vehicle: saline
  T/C: 41 % of control
dose: 60.0 mg/kg/injection, schedule: Q#A X022 (ip), vehicle: saline
  T/C: 28 % of control
dose: 62.5 mg/kg/injection, schedule: Q01DX011 (ip), vehicle: saline
  T/C: 63 % of control
dose: 87.5 mg/kg/injection, schedule: Q01DX011 (ip), vehicle: saline
  T/C: 33 % of control and 35 % of control
dose: 90.0 mg/kg/injection, schedule: Q03DX004 (ip), vehicle: saline
  T/C: 66 % of control
dose: 100.0 mg/kg/injection, schedule: Q01DX001 (ip), vehicle: saline
  T/C: 80 % of control and 87 % of control
dose: 100.0 mg/kg/injection, schedule: Q07DX002 (ip), vehicle: saline
  T/C: 78 % of control
dose: 120.0 mg/kg/injection, schedule: Q01DX001 (ip), vehicle: saline
  T/C: 56 % of control
dose: 120.0 mg/kg/injection, schedule: Q01DX011 (im), vehicle: saline
  T/C: 45 % of control
dose: 120.0 mg/kg/injection, schedule: Q01DX011 (ip), vehicle: saline
  T/C: 17 % of control
dose: 120.0 mg/kg/injection, schedule: Q01DX011 (oral), vehicle: saline
  T/C: 26 % of control
dose: 120.0 mg/kg/injection, schedule: Q01DX011 (sc), vehicle: saline
  T/C: 46 % of control
dose: 120.0 mg/kg/injection, schedule: Q#A X022 (ip), vehicle: saline
  T/C: 34 % of control
dose: 125.0 mg/kg/injection, schedule: Q01DX011 (ip), vehicle: saline
  T/C: 36 % of control
dose: 125.0 mg/kg/injection, schedule: Q01DX011 (oral), vehicle: saline
  T/C: 74 % of control
dose: 175.0 mg/kg/injection, schedule: Q01DX011 (ip), vehicle: other
  T/C: 33 % of control
dose: 175.0 mg/kg/injection, schedule: Q01DX011 (ip), vehicle: saline
  T/C: 27 % of control and 33 % of control
dose: 180.0 mg/kg/injection, schedule: Q03DX004 (ip), vehicle: saline
  T/C: 58 % of control
dose: 200.0 mg/kg/injection, schedule: Q01DX001 (ip), vehicle: saline
  T/C: 74 % of control and 75 % of control
dose: 200.0 mg/kg/injection, schedule: Q07DX002 (ip), vehicle: saline
  T/C: 71 % of control
dose: 240.0 mg/kg/injection, schedule: Q01DX001 (ip), vehicle: saline
  T/C: 44 % of control
dose: 240.0 mg/kg/injection, schedule: Q01DX011 (ip), vehicle: saline
  T/C: 16 % of control
dose: 240.0 mg/kg/injection, schedule: Q01DX011 (oral), vehicle: saline
  T/C: 23 % of control
dose: 250.0 mg/kg/injection, schedule: Q01DX011 (ip), vehicle: saline
  T/C: 52 % of control
dose: 250.0 mg/kg/injection, schedule: Q01DX011 (oral), vehicle: saline
  T/C: 64 % of control
dose: 350.0 mg/kg/injection, schedule: Q01DX011 (ip), vehicle: other
  T/C: 16 % of control
dose: 360.0 mg/kg/injection, schedule: Q03DX004 (ip), vehicle: saline
  T/C: 54 % of control
dose: 400.0 mg/kg/injection, schedule: Q01DX001 (ip), vehicle: saline
  T/C: 54 % of control and 65 % of control
dose: 400.0 mg/kg/injection, schedule: Q07DX002 (ip), vehicle: saline
  T/C: 51 % of control
dose: 480.0 mg/kg/injection, schedule: Q01DX001 (ip), vehicle: saline
  T/C: 26 % of control
dose: 480.0 mg/kg/injection, schedule: Q01DX011 (im), vehicle: saline
  T/C: 33 % of control
dose: 480.0 mg/kg/injection, schedule: Q01DX011 (ip), vehicle: saline
  T/C: 16 % of control
dose: 480.0 mg/kg/injection, schedule: Q01DX011 (oral), vehicle: saline
  T/C: 24 % of control
dose: 480.0 mg/kg/injection, schedule: Q01DX011 (sc), vehicle: saline
  T/C: 30 % of control
dose: 500.0 mg/kg/injection, schedule: Q01DX011 (ip), vehicle: saline
  T/C: 58 % of control
dose: 500.0 mg/kg/injection, schedule: Q01DX011 (oral), vehicle: saline
  T/C: 57 % of control
dose: 700.0 mg/kg/injection, schedule: Q01DX011 (ip), vehicle: other
  T/C: 34 % of control
dose: 720.0 mg/kg/injection, schedule: Q03DX004 (ip), vehicle: saline
  T/C: 24 % of control
dose: 800.0 mg/kg/injection, schedule: Q01DX001 (ip), vehicle: saline
  T/C: 60 % of control and 80 % of control
dose: 800.0 mg/kg/injection, schedule: Q07DX002 (ip), vehicle: saline
  T/C: 51 % of control
dose: 960.0 mg/kg/injection, schedule: Q01DX001 (ip), vehicle: saline
  T/C: 31 % of control
dose: 960.0 mg/kg/injection, schedule: Q01DX011 (im), vehicle: saline
  T/C: 29 % of control
dose: 960.0 mg/kg/injection, schedule: Q01DX011 (oral), vehicle: saline
  T/C: 25 % of control
dose: 960.0 mg/kg/injection, schedule: Q01DX011 (sc), vehicle: saline
  T/C: 25 % of control
dose: 1000.0 mg/kg/injection, schedule: Q01DX011 (ip), vehicle: saline
  T/C: 47 % of control
dose: 1000.0 mg/kg/injection, schedule: Q01DX011 (oral), vehicle: saline
  T/C: 43 % of control
dose: 1440.0 mg/kg/injection, schedule: Q03DX004 (ip), vehicle: saline
  T/C: 29 % of control
dose: 2000.0 mg/kg/injection, schedule: Q01DX011 (ip), vehicle: saline
  T/C: 40 % of control
dose: 2000.0 mg/kg/injection, schedule: Q01DX011 (oral), vehicle: saline
  T/C: 36 % of control
dose: 3000.0 mg/kg/injection, schedule: Q01DX011 (oral), vehicle: saline
  T/C: 56 % of control

## NS(=O)(=O)c1nc2nc[nH]c(=O)c2[nH]1
dose: 30.0 mg/kg/injection, schedule: Q01DX011 (ip), vehicle: carboxymethylcellulose (CMC)
  T/C: 113 % of control
dose: 60.0 mg/kg/injection, schedule: Q01DX011 (ip), vehicle: carboxymethylcellulose (CMC)
  T/C: 163 % of control
dose: 120.0 mg/kg/injection, schedule: Q01DX011 (ip), vehicle: carboxymethylcellulose (CMC)
  T/C: 104 % of control
dose: 240.0 mg/kg/injection, schedule: Q01DX011 (ip), vehicle: carboxymethylcellulose (CMC)
  T/C: 113 % of control

## COc1cc(C(=O)[O][Hg][CH2]C2CC(O)CC([CH2][Hg][O]C(=O)c3cc(OC)c(OC)c(OC)c3)O2)cc(OC)c1OC (stereo not drawn)
dose: 25.0 mg/kg/injection, schedule: Q01DX011 (ip), vehicle: carboxymethylcellulose (CMC)
  T/C: 61 % of control

## Cn1c(=O)c2[nH]c(COCc3nc4c([nH]3)c(=O)n(C)c(=O)n4C)nc2n(C)c1=O
dose: 25.0 mg/kg/injection, schedule: Q01DX011 (ip), vehicle: methylcellulose (MC)
  T/C: 48 % of control
dose: 75.0 mg/kg/injection, schedule: Q01DX011 (ip), vehicle: methylcellulose (MC)
  T/C: 65 % of control
dose: 225.0 mg/kg/injection, schedule: Q01DX011 (ip), vehicle: methylcellulose (MC)
  T/C: 21 % of control
